The assay concerns HBsAg. Kind of assay: HepG2.2.15 cells primary screen assay: HBsAg assay (CLIA of secreted HBsAg). The class given is cell-based, HBV. The following applies: Hepatitis B virus. As for the experimental part: Example 23: HepG2.2.15 Cells Primary Screen Assay
HepG2.2.15 cells (Acs et al. Proc Natl Acad Sci USA, 84, (1987), 4641-4), a constitutively HBV-expressing cell line were cultured in DMEM+Glutamax-I medium (Invitrogen, Carlsbad, Calif., USA), supplemented with 10% fetal bovine serum (Invitrogen) and G418 (Invitrogen) at a final concentration of 200 mg/L and maintained in 5% CO2 at 37° C.
HepG2.2.15 cells were seeded in duplicate into white, 96-well plates at 1.5×10^4 cells/well. The cells were treated with a three-fold serial dilution series of the compounds in DMSO. The final DMSO concentration in all wells was 1% and DMSO was used as no drug control.
The HBsAg chemiluminescence immunoassay (CLIA) kit (Autobio Diagnostics Co., Zhengzhou, China, Catalog number: CL0310-2) was used to measure the levels of secreted HBV antigens semi-quantitatively. For the detection 50 μL/well culture supernatant was used and HBsAg was quantified using HBsAg chemiluminescence immunoassay (CLIA) kit (Autobio Diagnostics Co., Zhengzhou, China, Catalog number: CL0310-2), 50 μL of the supernatant was transferred to the CLIA assay plate and 50 μL of enzyme conjugate reagent was added into each well. The plates were sealed and gently agitated for 1 hour at room temperature. The supernatant-enzyme-mixture was discarded and wells were washed 6 times with 300 μL of PBS. The residual liquid was removed by plating the CLIA plate […] on absorbent tissue paper. 25 μL of substrates A and B were added to each well. Luminance was measured using a luminometer (Mithras LB 940 Multimode Microplate Reader) after 10 minutes incubation. Dose-response curves were generated and the IC50 value was extrapolated by using the E-WorkBook Suite (ID Business Solutions Ltd., Guildford, UK). The IC50 was defined as the compound concentration (or conditioned media log dilution) at which HBsAg secretion was reduced by 50% compared to the no drug control.
The compounds of the present invention were tested for their capacity to inhibit HBsAg as described herein.

For `COC(=O)C1=C(CN(C)CCCCCCOc2cc3c(cc2OC)-c2cc(=O)c(C(=O)O)cn2C(C(C)(C)C)C3)NC(c2nccs2)=N[C@H]1c1ccc(F)cc1Cl` (stereo partly drawn) [Example 9, 6-tert-butyl-9-[6-[[(4R)-4-(2-chloro-4-fluoro-phenyl)-5-methoxycarbonyl-2-thiazol-2-yl-1,4-dihydropyrimidin-6-yl]methyl-methyl-amino]hexoxy]-10-methoxy-2-oxo-6,7-dihydrobenzo[a]quinolizine-3-carboxylic Acid], the IC50 (in general, the concentration needed to halve the response being measured) came to 113 nM.

Compound `COC(=O)C1=C(CN2CCN(CCC(CCCOc3cc4c(cc3OC)-c3cc(=O)c(C(=O)O)cn3C(C(C)(C)C)C4)C(=O)O)CC2)NC(c2nccs2)=N[C@H]1c1ccc(F)cc1Cl` (stereo partly drawn) [Example 12, 6-tert-butyl-9-[4-carboxy-6-[4-[[(4R)-4-(2-chloro-4-fluoro-phenyl)-5-methoxycarbonyl-2-thiazol-2-yl-1,4-dihydropyrimidin-6-yl]methyl]piperazin-1-yl]hexoxy]-10-methoxy-2-oxo-6,7-dihydrobenzo[a]quinolizine-3-carboxylic Acid] displayed an IC50 of 740 nM.

In the case of `COC(=O)C1=C(CN2CCN3C(=O)N(CCCCCCOc4cc5c(cc4OC)-c4cc(=O)c(C(=O)O)cn4C(C(C)(C)C)C5)CC3C2)NC(c2nccs2)=N[C@H]1c1ccc(F)cc1Cl` (stereo partly drawn) [Example 8, 6-tert-butyl-9-[6-[7-[[(4R)-4-(2-chloro-4-fluoro-phenyl)-5-methoxycarbonyl-2-thiazol-2-yl-1,4-dihydropyrimidin-6-yl]methyl]-3-oxo-5,6,8,8a-tetrahydro-1H-imidazo[1,5-a]pyrazin-2-yl]hexoxy]-10-methoxy-2-oxo-6,7-dihydrobenzo[a]quinolizine-3-carboxylic Acid], the IC50 is 48 nM.

`COC(=O)C1=C(CN2CCN(CCCCCOc3cc4c(cc3OC)-c3cc(=O)c(C(=O)O)cn3C(C(C)(C)C)C4)CC2)NC(c2nccs2)=N[C@H]1c1ccc(F)cc1Cl` (stereo partly drawn) [Example 2, 6-tert-butyl-9-[5-[4-[[(4R)-4-(2-chloro-4-fluoro-phenyl)-5-methoxycarbonyl-2-thiazol-2-yl-1,4-dihydropyrimidin-6-yl]methyl]piperazin-1-yl]pentoxy]-10-methoxy-2-oxo-6,7-dihydrobenzo[a]quinolizine-3-carboxylic Acid] displayed an IC50 of 88 nM.

Consider `COC(=O)C1=C(CN2CCN(CCCCCCOc3cc4c(cc3OC)-c3cc(=O)c(C(=O)O)cn3C(C(C)(C)C)C4)C(C(=O)O)C2)NC(c2nccs2)=N[C@H]1c1ccc(F)cc1Cl` (stereo partly drawn) [Example 7, 6-tert-butyl-9-[6-[2-carboxy-4-[[(4R)-4-(2-chloro-4-fluoro-phenyl)-5-methoxycarbonyl-2-thiazol-2-yl-1,4-dihydropyrimidin-6-yl]methyl]piperazin-1-yl]hexoxy]-10-methoxy-2-oxo-6,7-dihydrobenzo[a]quinolizine-3-carboxylic Acid], for which the half-maximal inhibitory concentration (IC50) worked out at 190 nM.

The compound `COC(=O)C1=C(CN2CCOC[C@H]2C(=O)NCCCCCCOc2cc(N3CCc4nc(-c5ncccn5)ncc4C3C)cc(F)c2F)NC(c2nccs2)=N[C@H]1c1ccc(F)cc1Cl` (stereo partly drawn) [Example 18, methyl (4R)-4-(2-chloro-4-fluoro-phenyl)-6-[[(3S)-3-[6-[2,3-difluoro-5-(5-methyl-2-pyrimidin-2-yl-7,8-dihydro-5H-pyrido[4,3-d]pyrimidin-6-yl)phenoxy]hexylcarbamoyl]morpholin-4-yl]methyl]-2-thiazol-2-yl-1,4-dihydropyrimidine-5-carboxylate] had an IC50 of 912 nM.

The compound `COC(=O)C1=C(CN2CCN3C(=O)N(CC(C)(C)CC(=O)NCCCCCCOc4cc(N5CCc6nc(-c7ncccn7)ncc6C5C)cc(F)c4F)C[C@@H]3C2)NC(c2nccs2)=N[C@H]1c1ccc(F)cc1Cl` (stereo partly drawn) [Example 17, methyl (4R)-6-[[(8aS)-2-[4-[6-[2,3-difluoro-5-[5-methyl-2-pyrimidin-2-yl-7,8-dihydro-5H-pyrido[4,3-d]pyrimidin-6-yl]phenoxy]hexylamino]-2,2-dimethyl-4-oxo-butyl]-3-oxo-5,6,8,8a-tetrahydro-1H-imidazo[1,5-a]pyrazin-7-yl]methyl]-4-(2-chloro-4-fluoro-phenyl)-2-thiazol-2-yl-1,4-dihydropyrimidine-5-carboxylate] yielded an IC50 of 1190 nM.

Compound `COC(=O)C1=C(CN2CCOC[C@H]2CN(C)CCCCCCOc2cc(N3CCc4nc(-c5ncccn5)ncc4C3C)cc(F)c2F)NC(c2nccs2)=N[C@H]1c1ccc(F)cc1Cl` (stereo partly drawn) [Example 19, methyl (4R)-4-(2-chloro-4-fluoro-phenyl)-6-[[(3R)-3-[[6-[2,3-difluoro-5-(5-methyl-2-pyrimidin-2-yl-7,8-dihydro-5H-pyrido[4,3-d]pyrimidin-6-yl)phenoxy]hexyl-methyl-amino]methyl]morpholin-4-yl]methyl]-2-thiazol-2-yl-1,4-dihydropyrimidine-5-carboxylate] came in with an IC50 of 724 nM.

Regarding `COC(=O)C1=C(CN2CCN(CCCCCCOc3cc4c(cc3OC)-c3cc(=O)c(C(=O)O)cn3C(C(C)(C)C)C4)CC2C(=O)O)NC(c2nccs2)=N[C@H]1c1ccc(F)cc1Cl` (stereo partly drawn) [Example 6, 6-tert-butyl-9-[6-[3-carboxy-4-[[(4R)-4-(2-chloro-4-fluoro-phenyl)-5-methoxycarbonyl-2-thiazol-2-yl-1,4-dihydropyrimidin-6-yl]methyl]piperazin-1-yl]hexoxy]-10-methoxy-2-oxo-6,7-dihydrobenzo[a]quinolizine-3-carboxylic Acid], the IC50 was 262 nM.

`COC(=O)C1=C(CN2CCOC[C@H]2C(=O)NCCCCCCOc2cc3c(cc2OC)-c2cc(=O)c(C(=O)O)cn2C(C(C)(C)C)C3)NC(c2nccs2)=N[C@H]1c1ccc(F)cc1Cl` (stereo partly drawn) [Example 13, 6-tert-butyl-9-[6-[[(3S)-4-[[(4R)-4-(2-chloro-4-fluoro-phenyl)-5-methoxycarbonyl-2-thiazol-2-yl-1,4-dihydropyrimidin-6-yl]methyl]morpholine-3-carbonyl]amino]hexoxy]-10-methoxy-2-oxo-6,7-dihydrobenzo[a]quinolizine-3-carboxylic Acid] yielded an IC50 of 85 nM.

Regarding `COC(=O)C1=C(CN2CCN(CCCOc3cc4c(cc3OC)-c3cc(=O)c(C(=O)O)cn3C(C(C)(C)C)C4)CC2)NC(c2nccs2)=N[C@H]1c1ccc(F)cc1Cl` (stereo partly drawn) [Example 4, 6-tert-butyl-9-[3-[4-[[(4R)-4-(2-chloro-4-fluoro-phenyl)-5-methoxycarbonyl-2-thiazol-2-yl-1,4-dihydropyrimidin-6-yl]methyl]piperazin-1-yl]propoxy]-10-methoxy-2-oxo-6,7-dihydrobenzo[a]quinolizine-3-carboxylic Acid], half-maximal inhibition (IC50) was put at 182 nM.

The compound `COC(=O)C1=C(CN2CCN(CCCOc3cc4c(cc3OC)-c3cc(=O)c(C(=O)O)cn3C(C(C)(C)C)C4)C(C(=O)O)C2)NC(c2nccs2)=N[C@H]1c1ccc(F)cc1Cl` (stereo partly drawn) [Example 5, 6-tert-butyl-9-[3-[2-carboxy-4-[[(4R)-4-(2-chloro-4-fluoro-phenyl)-5-methoxycarbonyl-2-thiazol-2-yl-1,4-dihydropyrimidin-6-yl]methyl]piperazin-1-yl]propoxy]-10-methoxy-2-oxo-6,7-dihydrobenzo[a]quinolizine-3-carboxylic Acid] had an IC50 of 3480 nM.

For `COC(=O)C1=C(CN2CCN(CC[C@@H](NCCCCCCOc3cc(N4CCc5nc(-c6ncccn6)ncc5C4C)cc(F)c3F)C(=O)O)CC2)NC(c2nccs2)=N[C@H]1c1ccc(F)cc1Cl` (stereo partly drawn) [Example 21, (2R)-4-[4-[[(4R)-4-(2-chloro-4-fluoro-phenyl)-5-methoxycarbonyl-2-thiazol-2-yl-1,4-dihydropyrimidin-6-yl]methyl]piperazin-1-yl]-2-[6-[2,3-difluoro-5-(5-methyl-2-pyrimidin-2-yl-7,8-dihydro-5H-pyrido[4,3-d]pyrimidin-6-yl)phenoxy]hexylamino]butanoic Acid], 582 nM corresponded to half-maximal inhibition (IC50).

For `COC(=O)C1=C(CN2CCN(CCOCCOCCOc3cc4c(cc3OC)-c3cc(=O)c(C(=O)O)cn3C(C(C)(C)C)C4)C(C(=O)O)C2)NC(c2nccs2)=N[C@H]1c1ccc(F)cc1Cl` (stereo partly drawn) [Example 11, 6-tert-butyl-9-[2-[2-[2-[2-carboxy-4-[[(4R)-4-(2-chloro-4-fluoro-phenyl)-5-methoxycarbonyl-2-thiazol-2-yl-1,4-dihydropyrimidin-6-yl]methyl]piperazin-1-yl]ethoxy]ethoxy]ethoxy]-10-methoxy-2-oxo-6,7-dihydrobenzo[a]quinolizine-3-carboxylic Acid], the IC50 stood at 6340 nM.

`COC(=O)C1=C(CN2CCN3C(=O)N(CC(C)(C)CC(=O)NCCCCCCOc4cc5c(cc4OC)-c4cc(=O)c(C(=O)O)cn4C(C(C)(C)C)C5)C[C@@H]3C2)NC(c2nccs2)=N[C@H]1c1ccc(F)cc1Cl` (stereo partly drawn) [Example 16, 9-[6-[[4-[(8aS)-7-[[(4R)-4-(2-chloro-4-fluoro-phenyl)-5-methoxycarbonyl-2-thiazol-2-yl-1,4-dihydropyrimidin-6-yl]methyl]-3-oxo-5,6,8,8a-tetrahydro-1H-imidazo[1,5-a]pyrazin-2-yl]-3,3-dimethyl-butanoyl]amino]hexoxy]-6-tert-butyl-10-methoxy-2-oxo-6,7-dihydrobenzo[a]quinolizine-3-carboxylic Acid]: the IC50 came to 107 nM.
